Measurements taken from PubChem BioAssay (NCI).
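1) Cells in 96-well plates. 2) Compound, 48 h, 5 concentrations. 3) Linear interpolation between surrounding doses. 4) Unreached endpoint = highest concentration. TGI: concentration producing complete growth inhibition.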

Tested on: P388 leukemia
Assay: NCI tumour cell line growth inhibition, 48 h

O=C(O)C(Cc1cccs1)NC(=O)C(F)(F)F (configuration not stated) showed a TGI of over 100 µM.

CN(C)CCOc1cc2c(c3ccccc13)-c1ccccc1C2=O showed a TGI of 2.7 µM.
